Values after ≈ are worked out from the molar mass of the structure shown. Active and inactive are the calls of the source. The calls are words filed in the database; no cut-off is given here.
Assays:
[1] = Cytotoxicity against human TZM-bl cells assessed as cell growth inhibition at 1 to 10 ug/ml washout after 1 hr measured at 24 hrs by MTT assay; assay type: cell-based
[2] = tested on: Human immunodeficiency virus 1; experiment: Antiviral activity against HIV1 NL4.3 infected in human PHA-blast cells from PBMC assessed as reduction in viral production measured as p24 protein expression cells pretreated for 1 hr with compound at 1 to 5 ug/ml and washed 1 hr after infection measured at day 4 post infection by ELISA; assay type: functional, organism-based
[3] = Cytotoxicity against human PHA-blast cells from CBMC assessed as cell growth inhibition at 1 to 10 ug/ml washout after 1 hr measured at 24 hrs by MTT assay; assay type: cell-based
MOLT-4 [4] = experiment: Reduction in membrane fluidity in human MOLT4 cells assessed as fluorescence polarization of DPH by spectrophotofluorometry; assay type: functional, cell-based
PBMC = experiment: Cytotoxicity against human PHA-blast cells from PBMC assessed as cell growth inhibition at 1 to 10 ug/ml washout after 1 hr measured at 24 hrs by MTT assay; assay type: cell-based
MOLT-4 [5] = experiment: Cytotoxicity against human MOLT4 cells assessed as cell growth inhibition up to 20 ug/ml washout after 1 hr measured at 24 hrs by MTT assay; assay type: cell-based; details: molt-4, 1 h
MOLT-4 [6] = experiment: Cytotoxicity against human MOLT4 cells assessed as cell growth inhibition at 1 to 10 ug/ml washout after 1 hr measured at 24 hrs by MTT assay; assay type: cell-based
MOLT-4 [7] = experiment: Inhibition of HIV1 envelope Env-dependent cell fusion in JurkatHXBc2 cells expressing Env co-cultured with 1 hr at compound treated PKH67-labelled human MOLT4 cells at 1:1 ratio for 24 hrs by fluorescent microscopy; assay type: cell-based; details: Human immunodeficiency virus 1
MOLT-4 [8] = experiment: Inhibition of HIV1 envelope Env-dependent cell fusion in JurkatHXBc2 cells expressing Env co-cultured with 1 hr at compound treated PKH67-labelled human MOLT4 cells at 1:1 ratio for 24 hrs by flow cytometry; assay type: cell-based; details: Human immunodeficiency virus 1
HEK-293T = experiment: Suppression of syncytial formation in HIV1 envelope Env-GFP expressing HEK293T cells co-cultured with 1 hr at up to 5 ug/ml compound treated human TZM-bl cells by fluorescent microscopy; assay type: cell-based; details: Human immunodeficiency virus 1
[9] = tested on: Human immunodeficiency virus 1; experiment: Antiviral activity against HIV1 NL4.3 infected in human PHA-blast cells from PBMC assessed as reduction in viral production measured as p24 protein expression cells pretreated for 1 hr with compound at 1 to 5 ug/ml and washed 1 hr after infection measured at day 4 post infection by flow cytometry; assay type: functional, organism-based
[10] = Cytotoxicity against human MOLT4 cells assessed as cell growth inhibition after 24 hrs by MTT assay; assay type: cell-based; details: MOLT-4 cells

## COc1ccc2cc1Oc1ccc(cc1)C[C@H]1c3c(cc4c(c3Oc3cc5c(cc3OC)CCN(C)[C@@H]5C2)OCO4)CCN1C [CEPHARANTHINE]
[1]
  Activity: Non-toxic
[2]
  inhibition: Active
[3]
  Activity: Non-toxic
MOLT-4 [4]
  Activity: Dose-dependent effect
PBMC
  Activity: Non-toxic
MOLT-4 [5]
  Activity: Non-toxic
MOLT-4 [6]
  Activity: Non-toxic
MOLT-4 [7]
  inhibition: Dose-dependent effect
MOLT-4 [8]
  inhibition: Dose-dependent effect
HEK-293T
  Activity: Active
[9]
  inhibition: Active
[10]
  CC50 at 24 h: 10 µg/mL (≈ 16.5 µM)

Reference: ChEMBL document CHEMBL3259734, “Cepharanthine inhibited HIV-1 cell-cell transmission and cell-free infection via modification of cell membrane fluidity” (Bioorg Med Chem Lett, 2014)
